Series [1] deals with CDK4/cyclinD1 (Homo sapiens, UniProt P11802). The series can be described thus: In vitro filtration assay for CDK4 inhibitory activity (pRb phosphorylation, [33P]-ATP). Type of series: biochemical. The settings on record: GST-pRb substrate, 1 μM unlabeled ATP, 25° C. 45 minutes, read-out: cdk4 filter (pIC50) (converted). Put shortly: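 CDK4/cyclinD1 phosphorylating GST-pRb for 45 min at 25 °C in Hepes pH 7.5 with 1 µM ATP plus [33P]-ATP; labelled pRb captured on filtermats and counted. Activity expressed as percent of blank-corrected DMSO control; IC50 by linear interpolation, reported as pIC50.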

The target of series [2] is AURORA B (Homo sapiens, UniProt Q96GD4). The series can be described thus: In vitro filtration assay for AURORA B inhibitory activity. The note with it: peptide (C(LRRWSLG)×4), 1 μM unlabeled ATP, 25° C. 40 minutes, read-out: Aurora B see C.3 (pIC50) (converted). Format: biochemical. In outline:
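Radiometric filter-binding assay: Aurora-B (100 ng/well) phosphorylates C(LRRWSLG)×4 peptide with 1 μM ATP plus AT^33P, HEPES pH 7.5, Mg/Mn, 40 min at 25° C. Incorporated 33P counted after phosphoric acid washes; blank-subtracted % of control, IC50 by linear interpolation, reported as pIC50.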

Series [3] concerns the target CDK4/cyclinD1 enzyme complex (Homo sapiens, UniProt P11802). The series can be described thus: In vitro scintillation proximity assay (SPA) for CDK4 inhibitory activity. Format: biochemical. The settings on record: GST-pRb substrate, 33P-ATP, 25° C. 30 minutes, read-out: cdk4 SPA see C.4 (pIC50) (converted). On the procedure:
Compounds of the present invention were tested in an in vitro assay based on SPA technology.
In principle, the assay relies upon the well established SPA technology for the detection of CDK4 phosphorylated proteins, i.e pRb. This phosphorylation is performed using I0 CDK4/cyclinD1 enzyme complex and ^33P-ATP as phosphor donor.
The CDK4 SPA kinase reaction is performed at 25° C. for 30 minutes in a 96-well microtiter plate. The 100 μl reaction volume contains 40 mM Hepes, 6 mM NaF, 6 mM MgCl2, 0.6 mM Na3VO4, 2 μg/ml Pepstatin, 2 μg/ml Leupeptin, 2 μg/ml Aprotinin, 50 μg/ml TLCK, 150 μg/ml DTT, 0.3 μg/ml benzamide, 0.1 μCi ^33P-ATP, 1.7 μg GST-pRb, 50 ng CDK4/cyclinD1/well and 0.2% compound in 100% DMSO. The reaction is stopped by adding to each well 100 μl of the glutathione coated SPA beads (10 mg/ml in PBS+10 mM EDTA+100 μM ATP+0.05% Triton X 100). The plates are then shaked at 300 rpm for 30 min to allow binding of the GST-tagged substrate to the glutathione coated beads. The beads are allowed to settle at the bottom of the plate for 30 minutes. The microtiterplates are centrifuges at 800 rpm for 10 minutes and the amount of phosphorylated (^33P) substrate is determined by counting (30 sec/well) in a microtiterplate scintillation counter.
For each experiment, controls (containing enzyme (complex) and DMSO without compound), a blank incubation (containing DMSO but no enzyme (complex) or compound) and samples (containing enzyme (complex) and compound dissolved in DMSO) were run in parallel. All compounds tested were dissolved and eventually further diluted in DMSO. […] In each test, the blank value was subtracted from both the control and the sample values. The control sample represented maximal enzyme activity. For each sample, the amount of cpm was expressed as a percentage of the mean cpm value of the controls. When appropriate, IC50-values (concentration of the drug, needed to reduce the enzyme activity to 50% of the control) were computed using linear interpolation between the experimental points just above and below the 50% level. Herein the effects of test compounds are expressed as pIC50 (the negative log value of the IC50-value).

Series [4] addresses T1, AURORA A (Homo sapiens, UniProt O14965).
T1 sequence (O14965 1-403): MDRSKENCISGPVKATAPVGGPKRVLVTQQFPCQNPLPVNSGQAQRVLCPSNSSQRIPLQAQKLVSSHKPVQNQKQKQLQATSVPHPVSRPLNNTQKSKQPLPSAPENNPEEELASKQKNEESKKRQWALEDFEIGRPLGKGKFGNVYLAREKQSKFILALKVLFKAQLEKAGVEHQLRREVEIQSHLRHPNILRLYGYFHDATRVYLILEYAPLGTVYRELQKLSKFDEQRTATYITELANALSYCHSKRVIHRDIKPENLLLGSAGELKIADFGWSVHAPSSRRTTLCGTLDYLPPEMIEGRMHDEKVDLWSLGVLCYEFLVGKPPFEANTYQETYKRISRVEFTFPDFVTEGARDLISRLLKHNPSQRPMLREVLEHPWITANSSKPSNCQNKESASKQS
The series can be described thus: In vitro filtration assay for AURORA A inhibitory activity. Type of series: biochemical. The settings on record: Kemptide substrate, 1 μM unlabeled ATP, 25° C. 40 minutes, read-out: Aurora A see C.2 (pIC50) (converted). In outline: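 Radiometric filter-binding assay at 25 °C for 40 min in MOPS pH 7 buffer with 1 μM ATP plus [33P]-ATP, 200 μM Kemptide and 3 ng enzyme/well. Blank-corrected cpm were expressed as % of DMSO control. IC50 was obtained by linear interpolation around 50% and reported as pIC50.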

SMILES strings stand for the structures.

AURORA B, sequence (Q96GD4 whole entry): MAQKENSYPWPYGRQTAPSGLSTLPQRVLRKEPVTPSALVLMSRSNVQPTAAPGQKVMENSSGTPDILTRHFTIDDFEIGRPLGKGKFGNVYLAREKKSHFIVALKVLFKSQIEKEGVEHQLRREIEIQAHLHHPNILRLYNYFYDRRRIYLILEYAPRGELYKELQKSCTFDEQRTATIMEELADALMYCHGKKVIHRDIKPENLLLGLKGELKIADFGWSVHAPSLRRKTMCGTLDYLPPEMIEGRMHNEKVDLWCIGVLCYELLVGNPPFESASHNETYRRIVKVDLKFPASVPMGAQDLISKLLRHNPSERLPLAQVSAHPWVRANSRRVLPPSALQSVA
CDK4/cyclinD1, sequence (P11802 whole entry): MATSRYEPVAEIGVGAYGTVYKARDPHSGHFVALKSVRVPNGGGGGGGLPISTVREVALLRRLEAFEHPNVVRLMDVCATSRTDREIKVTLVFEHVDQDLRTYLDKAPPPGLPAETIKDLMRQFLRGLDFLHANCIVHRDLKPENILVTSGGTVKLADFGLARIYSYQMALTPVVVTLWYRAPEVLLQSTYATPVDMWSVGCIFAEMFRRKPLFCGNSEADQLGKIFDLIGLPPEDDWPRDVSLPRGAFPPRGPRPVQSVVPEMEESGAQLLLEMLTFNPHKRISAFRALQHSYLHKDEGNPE
CDK4/cyclinD1, sequence (P24385 whole entry partner): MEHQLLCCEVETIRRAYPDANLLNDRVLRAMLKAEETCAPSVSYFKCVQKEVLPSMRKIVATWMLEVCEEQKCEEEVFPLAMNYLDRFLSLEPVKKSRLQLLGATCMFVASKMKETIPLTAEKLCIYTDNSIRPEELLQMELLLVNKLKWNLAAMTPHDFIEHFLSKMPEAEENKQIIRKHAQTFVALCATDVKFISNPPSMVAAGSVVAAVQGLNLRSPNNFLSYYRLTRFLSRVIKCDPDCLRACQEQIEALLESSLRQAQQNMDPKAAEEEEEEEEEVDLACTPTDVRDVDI
CDK4/cyclinD1 enzyme complex, sequence (P11802 whole entry): as the sequence (P11802 whole entry) above
CDK4/cyclinD1 enzyme complex, sequence (P24385 whole entry partner): as the sequence (P24385 whole entry partner) above

The compound `CN1CCN(c2ccc(Nc3ncc4cnn(C5CCCCC5)c4n3)cc2)CC1` [Co. No. 1] registered a melting point of 180 °C. Further, in series [1], the IC50 is 3.16 nM. Besides, the IC50 in series [2] is 251 nM. The IC50 in series [3] is 5.01 nM. The IC50 in series [4] is 126 nM.
In turn, `CN1CCN(c2ccc(Nc3ncc4ncn(C5CCCCC5)c4n3)cc2)CC1` [Co. No. 5] came in with a melting point of 203.5 to 203.6 °C. For the same compound, the IC50 in series [1] is 631 nM. Moreover, the IC50 in series [2] was above 10000 nM. In addition, the IC50 in series [3] was 3160 nM. Moreover, the IC50 in series [4] was above 10000 nM.
On to `CN1CCN(c2ccc(Nc3ncc4[nH]c(=O)n(C5CCCCC5)c4n3)cc2)CC1` [Co. No. 6], for which the melting point is 294 °C. In addition, the IC50 in series [1] is 251 nM. Further, in series [2], the IC50 is above 10000 nM. The IC50 in series [3] is 100 nM. For the same compound, the IC50 in series [4] is above 10000 nM.
`CN1CCN(c2ccc(Nc3ncc4c(=O)[nH]n(C5CCCCC5)c4n3)cc2)CC1` [Co. No. 7] had a melting point above 260 °C. For the same compound, the IC50 in series [1] is 79.4 nM. Also, the IC50 in series [2] is 398 nM. Besides, the IC50 in series [3] was 158 nM.
The compound `O=S(=O)(c1ccc(Nc2ncc3cnn(C4CCCCC4)c3n2)cc1)N1CCOCC1` [Co. No. 8] came in with a melting point of 240 °C. In series [1], the IC50 was 100 nM. In addition, the IC50 in series [2] is above 10000 nM. In addition, the IC50 in series [4] is 501 nM.
In the same order, the values of `O=C(NC1CCN(CCO)CC1)c1ccc(Nc2ncc3cnn(C4CCCCC4)c3n2)cc1` [Co. No. 9] are 177 to 181 °C, 126 nM, 794 nM and 251 nM.
Turning to `CN1CCN(c2ccc(Nc3ncc4cnn(-c5ccccc5)c4n3)cc2)CC1` [compound 14], the IC50 in series [1] is 20 nM; in series [2], 794 nM; in series [3], 3.98 nM; in series [4] it was 79.4 nM.
In the same order, the values of `CN1CCN(c2ccc(Nc3ncc4c(=O)[nH]n(C5CCCC5)c4n3)cc2)CC1` [compound 91] are 631 nM, above 10000 nM, 1260 nM and 7940 nM.
On to `O=c1[nH]n(C2CCCC2)c2nc(Nc3ccc(N4CCOCC4)cc3)ncc12` [compound 93], for which the IC50 in series [1] is 5010 nM; in series [2], above 10000 nM; in series [3] it was 2510 nM; in series [4] it was 1580 nM.
For the compound `O=c1[nH]n(C2CCCCC2)c2nc(Nc3ccc(N4CCC(CCCO)CC4)cc3)ncc12` [compound 94], the IC50 in series [1] was 1580 nM; in series [2], above 10000 nM; in series [3], 1000 nM; in series [4], 3160 nM.

Values taken from US7947695B2, “5-membered annelated heterocyclic pyrimidines as kinase inhibitors” (Janssen Pharmaceutica NV, priority 2005, dated 2011).
